From ChEMBL document CHEMBL1201862, “PubChem BioAssay data set” (2004)
Values joined by “and” are separate entries in the source; they are usually repeats but may differ in a detail not shown here. Identical values can stand only once.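 Grown in 96-well plates, cells were treated for 48 hours with each compound at five concentrations. Insufficient inhibition: endpoint recorded as highest concentration tested. GI50 = concentration required for 50% inhibition of growth.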 Active and inactive are the calls of the source. Rule as the data show it: active = GI50 up to about 1.1 µM and inactive = higher.

What was measured:
Experiment in all cases: inhibition of tumour cell growth, NCI panel, 48 h
[1] = tested on: SNB-19
[2] = tested on: COLO 205
[3] = tested on: DMS-273
[4] = tested on: CAKI-1
[5] = tested on: HCT-15
[6] = tested on: 786-0
[7] = tested on: HCC 2998
[8] = tested on: LOX IMVI
[9] = tested on: LXFL 529
[10] = tested on: SF-539
[11] = tested on: OVCAR-4
[12] = tested on: IGROV-1
[13] = tested on: U-251
[14] = tested on: HOP-62
[15] = tested on: HT-29
[16] = tested on: SF-268
[17] = tested on: UACC-62
[18] = tested on: SK-MEL-2
[19] = tested on: DLD-1
[20] = tested on: A498
[21] = tested on: SW-620
[22] = tested on: SN12C
[23] = tested on: UO-31
[24] = tested on: M14
[25] = tested on: TK-10
[26] = tested on: SK-OV-3
[27] = tested on: M19-MEL
[28] = tested on: OVCAR-5
[29] = tested on: A549
[30] = tested on: SNB-78
[31] = tested on: OVCAR-8
[32] = tested on: NCI-H23
[33] = tested on: KM-20L2
[34] = tested on: SK-MEL-28
[35] = tested on: NCI-H460
[36] = tested on: ACHN
[37] = tested on: HCT-116
[38] = tested on: SK-MEL-5
[39] = tested on: KM12
[40] = tested on: RPMI-8226
[41] = tested on: Malme-3M
[42] = tested on: MOLT-4
[43] = tested on: EKVX
[44] = tested on: SF-295
[45] = tested on: DMS-114
[46] = tested on: SNB-75
[47] = tested on: NCI-H226
[48] = tested on: OVCAR-3
[49] = tested on: NCI-H522
[50] = tested on: HL-60
[51] = tested on: K562
[52] = tested on: UACC-257
[53] = tested on: RXF 393
[54] = tested on: CCRF-CEM
[55] = tested on: HOP-92

For `CSC1CC2C(CC1(C)O)C2(C)C` (configuration not stated), the GI50 [1] was > 100 µM (inactive), the GI50 [2] was > 100 µM (inactive) and the GI50 [3] was > 100 µM (inactive) and 69.3 µM (inactive). For the same molecule, the GI50 [4] was > 100 µM (inactive), the GI50 [5] was > 100 µM and the GI50 [6] was > 100 µM (inactive). For the same molecule, the GI50 [7] was > 100 µM (inactive), the GI50 [8] was 95.5 µM (inactive) and the GI50 [9] was > 100 µM (inactive). For the same molecule, the GI50 [10] was > 100 µM (inactive), the GI50 [11] was > 100 µM (inactive) and the GI50 [12] was > 100 µM (inactive). For the same molecule, the GI50 [13] was > 100 µM (inactive), the GI50 [14] was > 100 µM (inactive) and the GI50 [15] was > 100 µM (inactive). For the same molecule, the GI50 [16] was > 100 µM (inactive), the GI50 [17] was > 100 µM (inactive) and the GI50 [18] was > 100 µM (inactive). For the same molecule, the GI50 [19] was > 100 µM (inactive), the GI50 [20] was > 100 µM (inactive) and the GI50 [21] was > 100 µM (inactive). For the same molecule, the GI50 [22] was > 100 µM (inactive), the GI50 [23] was > 100 µM (inactive) and 65 µM (inactive) and the GI50 [24] was > 100 µM (inactive). For the same molecule, the GI50 [25] was > 100 µM (inactive), the GI50 [26] was > 100 µM (inactive) and the GI50 [27] was > 100 µM (inactive). For the same molecule, the GI50 [28] was > 100 µM (inactive), the GI50 [29] was > 100 µM (inactive) and the GI50 [30] was > 100 µM (inactive). For the same molecule, the GI50 [31] was > 100 µM (inactive), the GI50 [32] was > 100 µM (inactive) and the GI50 [33] was > 100 µM (inactive) and 74.8 µM (inactive). For the same molecule, the GI50 [34] was > 100 µM (inactive), the GI50 [35] was > 100 µM (inactive) and the GI50 [36] was > 100 µM (inactive). For the same molecule, the GI50 [37] was > 100 µM (inactive), the GI50 [38] was > 100 µM (inactive) and 53.8 µM (inactive) and the GI50 [39] was > 100 µM (inactive). For the same molecule, the GI50 [40] was > 100 µM (inactive) and the GI50 [41] was > 100 µM (inactive).
In the case of `CC#CC(=O)Nc1ccccc1CC(c1c[nH]c2ccccc12)c1c[nH]c2ccccc12`, the GI50 [1] is reported as 18.5 µM (inactive), the GI50 [42] is reported as 5.68 µM (inactive) and the GI50 [43] is reported as 14.6 µM (inactive). The GI50 [2] was 15.5 µM (inactive), the GI50 [3] was 16.2 µM (inactive) and the GI50 [4] was 20.6 µM (inactive). For the same molecule, the GI50 [5] was 14.3 µM, the GI50 [6] was 18.3 µM (inactive) and the GI50 [7] was 18.3 µM (inactive). The GI50 [8] was 15.2 µM (inactive), the GI50 [9] was 15.1 µM (inactive) and the GI50 [10] was 20.4 µM (inactive). The GI50 [12] was 16.4 µM (inactive), the GI50 [44] was 20.3 µM (inactive) and the GI50 [14] was 20 µM (inactive). For the same molecule, the GI50 [15] was 16.2 µM (inactive), the GI50 [45] was 14.4 µM (inactive) and the GI50 [16] was 22.7 µM (inactive). For the same molecule, the GI50 [17] was 13.3 µM (inactive), the GI50 [18] was 18.2 µM (inactive) and the GI50 [19] was 16.6 µM (inactive). For the same molecule, the GI50 [21] was 16.2 µM (inactive), the GI50 [22] was 15.1 µM (inactive) and the GI50 [23] was 7.19 µM (inactive). For the same molecule, the GI50 [24] was 15 µM (inactive), the GI50 [25] was 29.9 µM (inactive) and the GI50 [26] was 18.8 µM (inactive). The GI50 [46] was 5.51 µM (inactive), the GI50 [47] was 15.5 µM (inactive) and the GI50 [27] was 15.3 µM (inactive). For the same molecule, the GI50 [29] was 20.5 µM (inactive), the GI50 [30] was 11.6 µM (inactive) and the GI50 [31] was 19.1 µM (inactive). For the same molecule, the GI50 [48] was 18.9 µM (inactive), the GI50 [32] was 18.8 µM (inactive) and the GI50 [49] was > 10 µM (inactive). The GI50 [50] was 10.8 µM (inactive), the GI50 [51] was 16.1 µM (inactive) and the GI50 [34] was 15.7 µM (inactive). The GI50 [38] was 14.2 µM (inactive), the GI50 [52] was 21.5 µM (inactive) and the GI50 [39] was 22.3 µM (inactive). The GI50 [53] was 7.13 µM (inactive), the GI50 [40] was 8.32 µM (inactive) and the GI50 [41] was 16.6 µM (inactive). The GI50 [54] was 11.3 µM (inactive).
`Cc1ccccc1C(=O)C1CCCCC1O` (configuration not stated) was tested, and the GI50 [1] was > 100 µM (inactive), the GI50 [42] was > 100 µM (inactive) and the GI50 [43] was > 100 µM (inactive). The GI50 [4] was > 100 µM (inactive), the GI50 [5] was > 100 µM and the GI50 [6] was > 100 µM (inactive). The GI50 [7] was > 100 µM (inactive), the GI50 [8] was > 100 µM (inactive) and the GI50 [9] was > 100 µM (inactive). The GI50 [11] was > 100 µM (inactive), the GI50 [12] was > 100 µM (inactive) and the GI50 [13] was > 100 µM (inactive). The GI50 [55] was > 100 µM (inactive), the GI50 [14] was > 100 µM (inactive) and the GI50 [45] was > 100 µM (inactive). For the same molecule, the GI50 [16] was > 100 µM (inactive), the GI50 [17] was > 100 µM (inactive) and the GI50 [18] was > 100 µM (inactive). The GI50 [21] was > 100 µM (inactive), the GI50 [22] was > 100 µM (inactive) and the GI50 [23] was > 100 µM (inactive). The GI50 [24] was > 100 µM (inactive), the GI50 [25] was > 100 µM (inactive) and the GI50 [26] was > 100 µM (inactive). The GI50 [46] was > 100 µM (inactive), the GI50 [47] was > 100 µM (inactive) and the GI50 [28] was > 100 µM (inactive). For the same molecule, the GI50 [29] was > 100 µM (inactive), the GI50 [30] was 23.8 µM (inactive) and the GI50 [48] was > 100 µM (inactive). For the same molecule, the GI50 [32] was > 100 µM (inactive), the GI50 [33] was > 100 µM (inactive) and the GI50 [50] was > 100 µM (inactive). The GI50 [51] was > 100 µM (inactive), the GI50 [36] was > 100 µM (inactive) and the GI50 [37] was > 100 µM (inactive). For the same molecule, the GI50 [38] was > 100 µM (inactive), the GI50 [39] was > 100 µM (inactive) and the GI50 [53] was > 100 µM (inactive). The GI50 [41] was > 100 µM (inactive).
